Experimental data taken from patent publication US20210338665A1, “MEDICAL USE OF PROSTACYCLIN RECEPTOR AGONIST” (CHINESE PLA GENERAL HOSPITAL, priority 2018, published 2021).

System: SD rats in a low-pressure low-oxygen environment
Assay: Rat high altitude model in a low-pressure low-oxygen cabin (380 mmHg, simulated altitude of 5,500 meters): cardio-pulmonary function
Assay type: in vivo
Conditions: twice every day for 14 days, compared with the model group; for mean pulmonary arterial pressure (mPAP): P<0.05
Method: 40 SD rats (about 200 g, male, clean) are purchased from Beijing Vital River Laboratory Animal Technology Co. Ltd and have the license number of SCXK(Jing)2016-0006. The SD rats are fed in a low-pressure oxygen cabin, and regularly fed with a complete nutritional feed under the conditions of the room temperature of 22 to 25° C. and the humidity of 30% to 50%.
Solvent configuration: 20% of HP-β-CD and 80% of double distilled water, and pH=8.
A blank control group: normal-pressure normal-oxygen feeding
A model group: a low-pressure low-oxygen cabin, and intragastric administration of a solvent
An experimental group A: a low-pressure low-oxygen cabin, and intragastric administration of sc0253 (5 mg/kg) as well as a solvent
An experimental group B: a low-pressure low-oxygen cabin, and intragastric administration of sc0253 (10 mg/kg) as well as a solvent
40 rats are randomly divided into four groups, and each group includes 10 rats. 3 groups are placed into an experiment module, the pressure inside the module is regulated to 380 mmHg, a high altitude environment with an altitude of 5,500 meters is simulated, the experiment module is opened for 1 hour every day so as to add feed and water for animals and carry out corresponding medicine treatment, meanwhile, the environment where the rats are positioned are kept alternate day and night according to a ratio of 12h:12h, and after 14 days, intragastric administration is respectively carried out in which the solvent (the model group), the sc0253 (5 mg/kg) and the solvent (the experimental group A) or the sc0253 (10 mg/kg) and the solvent (the experimental group B) are respectively applied, and the operation is carried out twice every day and continued for 14 days. Rats in the fourth group are placed in the same room to be fed in the normal-pressure normal-oxygen environment (the blank control group).
3% pentobarbital sodium (0.2 mL/100 g) is intraperitoneally injected to anesthetize the rats, and ultrasonic detection is carried out. The following ultrasonic data is recorded: right ventricular ejection fraction (RVEF); and right ventricular fractional shortening (RVFS). Then the anesthetized rats are fixed on an operating table in a supine position mode, tracheotomy is carried out, a breathing machine is connected, thoracotomy is carried out to expose the hearts, a catheter is inserted into each right ventricle, right heart catheterization is carried out, and the right ventricular systolic pressure is recorded. Then each catheter is slowly pushed forwards, and can reach a corresponding pulmonary artery through a corresponding right ventricular outflow tract, the pressure waveform of a monitor is observed, and the mean pulmonary arterial pressure mPAP is recorded. The rats are executed, the hearts are taken out, the atrial tissue and attached fat are removed, left and right ventricles are separated, moisture is sucked up by filter paper, the weights of the right ventricles and the left ventricles are respectively weighed, and (RV/(LV+IS)) is calculated.
All the data is represented by x±s, comparison among the groups is single factor analysis of variance, when P<0.05, it represents that the difference has a statistical significance, and statistical treatment is carried out by adopting an SPSS19.0 software package.

[1] = experimental group B: sc0253 10 mg/kg intragastric, ultrasonic detection, P<0.01

Question: Which “mean pulmonary arterial pressure (mPAP)” value (experimental group A: sc0253 5 mg/kg intragastric) does the source give for `O=C(O)COCC1(F)CCN(c2cncc(N(c3ccccc3)c3ccc(F)cn3)n2)CC1` [sc0253] here?
Answer: Its value is “obviously reduced”.

Question: And the “right ventricular hypertrophy index RV/(LV+OS)” value (experimental group B: sc0253 10 mg/kg intragastric, P<0.01)?
Answer: Its value is “obviously reduced”.

Question: And the “mean pulmonary arterial pressure (mPAP)” value (experimental group B: sc0253 10 mg/kg intragastric)?
Answer: Its value is “obviously reduced”.

Question: What about the “right ventricular ejection fraction (RVEF)” value [1] of the same compound?
Answer: The value was “obviously increased”.

Question: What about the “right ventricular fractional shortening (RVFS)” value [1] of the same compound?
Answer: Its value is “obviously increased”.
